Reference: ChEMBL document CHEMBL4417640, “Inhibitors of mtor-deptor interactions and methods of use thereof” (2018)
The source made the active and inactive calls. The calls are words filed in the database; no cut-off is given here.

Key:
[1] = Therapeutic index, ratio of IC50 for cytotoxicity against human PBL cells incubated for 48 hrs by MTT assay to IC50 for cytotoxicity against human MM1S cells incubated for 48 hrs by MTT assay; format: toxicity, cell-based; conditions: PBL cells versus MM1S cells, read-out: Ratio IC50
[2] = molecular target: T1, DEP domain-containing mTOR-interacting protein (Homo sapiens, UniProt Q8TB45); assay: Inhibition of DEPTOR in human RPMI8226 cells assessed as induction of mTORC1 activation at 0.5 uM incubated for 6 hrs co-immunoprecipitation assay; format: cell-based
MM1.S [3] = assay: Cytotoxicity in human MM1S cells at 0.12 to 1 uM incubated for 48 hrs in presence of RAPTOR siRNA by MTT assay; format: functional, cell-based
[4] = molecular target: T1, DEP domain-containing mTOR-interacting protein; assay: Inhibition of DEPTOR in human RPMI8226 cells assessed as increase in mTOR kinase activity by measuring induction of p21 expression at 0.5 to 2 uM uM by Western blot analysis; format: cell-based
RPMI-8226 [5] = assay: Induction of apoptosis in human RPMI8226 cells at 0.12 to 2 uM by flow cytometry; format: functional, cell-based
MM1.S [6] = assay: Cytotoxicity in human MM1S cells incubated for 48 hrs by MTT assay; format: functional, cell-based
[7] = molecular target: T1, DEP domain-containing mTOR-interacting protein; assay: Inhibition of DEPTOR in human RPMI8226 cells assessed as increase in mTOR kinase activity by measuring induction of p70 phosphorylation incubated for 6 hrs by Western blot analysis; format: cell-based
RPMI-8226 [8] = assay: Toxicity in human RPMI8226 cells at 1 to 2 uM incubated for 6 hrs; format: cell-based; conditions: rpmi-8226, 6 h
RPMI-8226 [9] = assay: Induction of p70 degradation in human RPMI8226 cells at 1 to 2 uM incubated for 6 hrs by Western blot analysis; format: cell-based; conditions: rpmi-8226, 6 h
RPMI-8226 [10] = assay: Toxicity in human RPMI8226 cells at 0.05 to 0.2 uM incubated for 6 hrs; format: cell-based; conditions: rpmi-8226, 6 h
RPMI-8226 [11] = assay: Toxicity in human RPMI8226 cells at 0.5 uM incubated for 6 hrs; format: cell-based; conditions: rpmi-8226, 6 h
[12] = molecular target: DEPTOR/mTOR (Homo sapiens) (UniProt P42345+Q8TB45); assay: Inhibition of DEPTOR-mTOR interaction (unknown origin) by yeast-2-hybrid screen based assay; format: protein assay
OPM-2 [13] = assay: Induction of apoptosis in human OPM2 cells at 0.12 to 2 uM incubated for 48 hrs incubated for 48 hrs by flow cytometry; format: functional, cell-based
[14] = molecular target: T1, DEP domain-containing mTOR-interacting protein; assay: Inhibition of DEPTOR in human RPMI8226 cells assessed as induction of mTORC1 activation at 1 uM incubated for 6 hrs co-immunoprecipitation assay; format: cell-based
[15] = Toxicity in normal hematopoietic colony forming cells (unknown origin) assessed as reduction in colony formation at 10 uM
RPMI-8226 [16] = assay: Antitumor activity against human RPMI8226 cells xenografted in mouse assessed as reduction in tumor volume at 20 mg/kg, ip dosed daily for 4 days; format: functional, organism-based
OPM-2 [17] = assay: Cytotoxicity in human OPM2 cells incubated for 48 hrs by MTT assay; format: functional, cell-based; conditions: OPM-2, 48 h
NCI-H929 = assay: Induction of apoptosis in human NCI-H929 cells at 0.12 to 2 uM incubated for 48 hrs by flow cytometry; format: functional, cell-based
[18] = Toxicity in normal hematopoietic colony forming cells (unknown origin) assessed as reduction in colony formation at 0.5 uM
RPMI-8226 [19] = assay: Toxicity in human RPMI8226 cells xenografted in mouse assessed as effect on hemoglobin concentration at 20 mg/kg, ip dosed daily for 4 days; format: organism-based; conditions: in vivo, 96 h
RPMI-8226 [20] = assay: Cytotoxicity in human RPMI8226 cells transfected with DEPTOR at 0.25 to 1 uM incubated for 48 hrs by MTT assay; format: functional, cell-based
MM1.S [21] = assay: Cytotoxicity in human MM1S cells at 0.25 to 2 uM incubated for 48 hrs in presence of RAPTOR siRNA by MTT assay; format: functional, cell-based
RPMI-8226 [22] = assay: Toxicity in human RPMI8226 cells xenografted in mouse assessed as effect on platelet count at 20 mg/kg, ip dosed daily for 4 days; format: organism-based; conditions: in vivo, 96 h
RPMI-8226 [23] = assay: Toxicity in human RPMI8226 cells xenografted in mouse assessed as effect on hematocrit at 20 mg/kg, ip dosed daily for 4 days; format: organism-based; conditions: in vivo, 96 h
RPMI-8226 [24] = assay: Toxicity in human RPMI8226 cells xenografted in mouse assessed as effect on normal WBC counts at 20 mg/kg, ip dosed daily for 4 days; format: organism-based; conditions: in vivo, 96 h
RPMI-8226 [25] = assay: Induction of apoptosis in human RPMI8226 cells transfected with DEPTOR at 0.12 to 1 uM by flow cytometry; format: functional, cell-based
[26] = molecular target: T1, DEP domain-containing mTOR-interacting protein; assay: Induction of proteasome-dependent DEPTOR degradation in human RPMI8226 cells at 0.5 to 2 uM; format: cell-based
[27] = molecular target: T1, DEP domain-containing mTOR-interacting protein; assay: Inhibition of DEPTOR in human RPMI8226 cells assessed as increase in mTOR kinase activity by measuring induction of p21 expression at 0.25 to 1 uM uM by Western blot analysis; format: cell-based

T1 sequence (Q8TB45 whole entry, the tested form may be a part): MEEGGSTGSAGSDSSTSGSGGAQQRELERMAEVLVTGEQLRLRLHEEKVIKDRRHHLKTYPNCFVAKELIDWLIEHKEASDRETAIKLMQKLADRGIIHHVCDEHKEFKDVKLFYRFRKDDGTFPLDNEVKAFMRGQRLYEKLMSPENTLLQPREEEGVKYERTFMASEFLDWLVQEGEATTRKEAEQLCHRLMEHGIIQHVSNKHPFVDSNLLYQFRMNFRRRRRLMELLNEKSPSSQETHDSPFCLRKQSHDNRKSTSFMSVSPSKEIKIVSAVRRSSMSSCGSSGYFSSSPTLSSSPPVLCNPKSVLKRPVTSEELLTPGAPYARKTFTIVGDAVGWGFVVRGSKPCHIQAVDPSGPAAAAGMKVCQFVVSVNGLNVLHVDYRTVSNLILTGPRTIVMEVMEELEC
DEPTOR/mTOR (Homo sapiens), sequence (Q8TB45 whole entry, looked up, other chains not shown): as the sequence (Q8TB45 whole entry, the tested form may be a part) above

Q: For `Fc1ccc(NN=C2C(Cl)=C(Cl)C(Cl)=C2Cl)cc1`, which selectivity ratio at 48 h [1] is on record?
A: Its selectivity ratio at 48 h is 33.

Q: And the “mTORC1 activation (active/not active)” value [2]?
A: The value was “inactive”.

Q: What about the Activity (MM1.S [3]) of the same compound?
A: The Activity was “inactive”.

Q: And the inhibition [4]?
A: The inhibition was “Active”.

Q: Which results are given for `O=C(c1ccc(F)cc1)N(N=C1C(Cl)=C(Cl)C(Cl)=C1Cl)C(=O)c1ccc(F)cc1`?
A: selectivity ratio at 48 h [1]: 10; Activity (RPMI-8226 [5]): Active; inhibition [4]: Active

Q: For `ClC1=C(Cl)C(Cl)=C(Cl)C1=NNC1CCCCC1`, which IC50 (MM1.S [6]) is on record?
A: The IC50 was over 3000 nM.

Q: What about the IC50 [7] of the same compound?
A: The IC50 was over 5000 nM.

Q: For `O=C(NN=C1C(Cl)=C(Cl)C(Cl)=C1Cl)c1ccccc1`, which Activity (RPMI-8226 [8]) is on record?
A: Its Activity is “Toxic”.

Q: And the Activity (RPMI-8226 [9])?
A: Its Activity is “Toxic”.

Q: What about the Activity (RPMI-8226 [10]) of the same compound?
A: The Activity was “Non-Toxic”.

Q: What about the Activity (RPMI-8226 [11]) of the same compound?
A: The Activity was “Toxic”.

Q: Which IC50 (MM1.S [6]) does the source give for `ClC1=C(Cl)C(Cl)=C(Cl)C1=NN(c1ccccc1)c1ccccc1` here?
A: Its IC50 is over 3000 nM.

Q: For `Fc1ccccc1NN=C1C(Cl)=C(Cl)C(Cl)=C1Cl`, which IC50 (MM1.S [6]) is on record?
A: The IC50 was over 3000 nM.

Q: Which “inhibition activity call (active/inactive)” value [12] does the source give for `O=C(O)c1ccc2c(c1)CCC2` here?
A: The value was “Active”.

Q: Which IC50 (MM1.S [6]) does the source give for `NN=C(c1ccccc1)c1ccccc1` here?
A: The IC50 was over 5000 nM.

Q: With `NN=C1C(Cl)=C(Cl)C(Cl)=C1Cl` as the compound, how does the Activity (OPM-2 [13]) read?
A: Its Activity is “Active”.

Q: What about the selectivity ratio at 48 h [1] of the same compound?
A: Its selectivity ratio at 48 h is 14.3.

Q: What about the inhibition [14] of the same compound?
A: Its inhibition is “Active”.

Q: And the “mTORC1 activation (active/not active)” value [2]?
A: Its value is “inactive”.

Q: And the Activity [15]?
A: The Activity was “Toxic”.

Q: And the IC50 (MM1.S [6])?
A: Its IC50 is 3000 to 3300 nM.

Q: What about the Activity (RPMI-8226 [16]) of the same compound?
A: The Activity was “Active”.

Q: What about the IC50 (OPM-2 [17]) of the same compound?
A: Its IC50 is 4000 nM.

Q: And the Activity (NCI-H929)?
A: The Activity was “Active”.

Q: And the “inhibition activity call (active/inactive)” value [12]?
A: Its value is “Active”.

Q: And the IC50 [7]?
A: Its IC50 is 1300 nM.

Q: What about the Activity (RPMI-8226 [5]) of the same compound?
A: Its Activity is “Active”.

Q: With `CN(C)c1ccc(/C=C2\C=Cc3ccccc32)cc1F` as the compound, how does the “inhibition activity call (active/inactive)” value [12] read?
A: Its value is “Active”.

Q: And the Activity [18]?
A: Its Activity is “Toxic”.

Q: With `Fc1cccc(NN=C2c3ccccc3-c3ccccc32)c1` as the compound, how does the IC50 (MM1.S [6]) read?
A: Its IC50 is over 5000 nM.

Q: Which selectivity ratio at 48 h [1] does the source give for `CC(C)(C)OC(=O)NN=C1C(Cl)=C(Cl)C(Cl)=C1Cl` here?
A: Its selectivity ratio at 48 h is 45.5.

Q: What about the “mTORC1 activation (active/not active)” value [2] of the same compound?
A: Its value is “inactive”.

Q: What about the Activity (MM1.S [3]) of the same compound?
A: Its Activity is “inactive”.

Q: What about the Activity (RPMI-8226 [5]) of the same compound?
A: Its Activity is “Active”.

Q: And the inhibition [4]?
A: Its inhibition is “Active”.

Q: Which Activity (OPM-2 [13]) does the source give for `FC(F)(F)c1cccc(NN=C2C(Cl)=C(Cl)C(Cl)=C2Cl)c1` here?
A: Its Activity is “Active”.

Q: And the Activity (RPMI-8226 [19])?
A: Its Activity is “Non-Toxic”.

Q: And the selectivity ratio at 48 h [1]?
A: The selectivity ratio at 48 h was 136.

Q: And the Activity (RPMI-8226 [20])?
A: The Activity was “inactive”.

Q: What about the Activity (MM1.S [21]) of the same compound?
A: The Activity was “inactive”.

Q: And the Activity (RPMI-8226 [22])?
A: Its Activity is “Non-Toxic”.

Q: And the “mTORC1 activation (active/not active)” value [2]?
A: The value was “Active”.

Q: What about the Activity (RPMI-8226 [23]) of the same compound?
A: The Activity was “Non-Toxic”.

Q: And the Activity (RPMI-8226 [24])?
A: The Activity was “Toxic”.

Q: What about the Activity (RPMI-8226 [25]) of the same compound?
A: Its Activity is “inactive”.

Q: What about the Activity [26] of the same compound?
A: Its Activity is “Active”.

Q: And the Activity (RPMI-8226 [16])?
A: Its Activity is “Active”.

Q: What about the IC50 (OPM-2 [17]) of the same compound?
A: The IC50 was 300 nM.

Q: What about the Activity (NCI-H929) of the same compound?
A: The Activity was “Active”.

Q: And the inhibition [27]?
A: Its inhibition is “Active”.

Q: And the Activity (RPMI-8226 [5])?
A: The Activity was “Active”.

Q: For `CC(C)(C)OC(=O)NN=C1c2ccccc2-c2ccccc21`, which IC50 (MM1.S [6]) is on record?
A: The IC50 was over 5000 nM.

Q: For `Cc1cccc(NN=C2C(Cl)=C(Cl)C(Cl)=C2Cl)c1`, which IC50 (MM1.S [6]) is on record?
A: Its IC50 is over 3000 nM.

Q: With `NN=c1c2ccccc2oc2ccccc12` as the compound, how does the IC50 (MM1.S [6]) read?
A: Its IC50 is over 5000 nM.

Q: Which IC50 (MM1.S [6]) does the source give for `CC(C)(C)NN=C1C(Cl)=C(Cl)C(Cl)=C1Cl` here?
A: Its IC50 is over 3000 nM.

Q: And the IC50 [7]?
A: The IC50 was over 5000 nM.

Q: Which selectivity ratio at 48 h [1] does the source give for `CC(C)(C)C(=O)NN=C1C(Cl)=C(Cl)C(Cl)=C1Cl` here?
A: The selectivity ratio at 48 h was 14.

Q: And the inhibition [27]?
A: The inhibition was “Active”.

Q: What about the Activity (RPMI-8226 [5]) of the same compound?
A: Its Activity is “Active”.

Q: With `COc1cccc(NN=C2C(Cl)=C(Cl)C(Cl)=C2Cl)c1` as the compound, how does the IC50 (MM1.S [6]) read?
A: The IC50 was over 3000 nM.

Q: Which “inhibition activity call (active/inactive)” value [12] does the source give for `CCCCCCCCNS(=O)(=O)c1ccccc1` here?
A: Its value is “Active”.

Q: For `CN(C)N=C1C(Cl)=C(Cl)C(Cl)=C1Cl`, which IC50 (MM1.S [6]) is on record?
A: The IC50 was over 3000 nM.
